Assay results reported in the supplement of paper PMC10307832.

Legend:
Adavosertib = compound: C=CCn1c(=O)c2cnc(Nc3ccc(N4CCN(C)CC4)cc3)nc2n1-c1cccc(C(C)(C)O)n1 [Adavosertib]; experiment: relative viability (nuclei count vs DMSO), 5 days (fraction); higher = more cells survive
In short: (§1)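 Lung cancer cell lines in 1536-well plates were kept overnight at 37 °C, then pinned with five library-drug doses (not always all listed) spaced by √10 on vehicle-anchored plates. After 5 days without medium change, cells were fixed, permeabilised and Hoechst-stained in one step, imaged at 4×, and nuclei were counted with MetaXpress. Viability is treated-well nuclei divided by vehicle-well nuclei, taken as the median over plates. Plates passed only with control CV below 25% and at least one doubling.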

Nelarabine = compound: COc1nc(N)nc2c1ncn2[C@@H]1O[C@H](CO)[C@@H](O)[C@@H]1O [Nelarabine]; experiment: as above
In short: as §1

Cell Line	relative viability (Adavosertib; 0.01 µM)	relative viability (Adavosertib; 0.03162 µM)	relative viability (Adavosertib; 0.1 µM)	relative viability (Adavosertib; 0.3162 µM)	relative viability (Nelarabine; 0.01 µM)	relative viability (Nelarabine; 0.03162 µM)	relative viability (Nelarabine; 0.1 µM)	relative viability (Nelarabine; 0.3162 µM)	relative viability (Nelarabine; 1 µM)
NCI-H647	1.03	1.04	0.918	0.669	1.29	0.916	1.07	1.14	0.997
NCI-H2347	1.06	1.05	1.09	0.983	1.13	0.904	1.04	1.02	1.01
NCI-H1395	0.83	0.901	0.887	0.775	0.997	0.821	1.02	0.928	0.842
NCI-H522	1.04	0.975	1.05	1.06	1.01	0.949	1.09	0.843	1.05
NCI-H2087	0.968	0.95	1.08	1.13	1.1	0.981	1.05	1.22	0.881
EPLC-272H	0.853	0.961	0.757	0.497	1.01	1	0.878	0.952	0.881
NCI-H838	0.978	0.919	0.996	0.948	1.3	0.893	0.986	1.05	1.04
NCI-H661	0.996	1.03	1.08	0.769	1.07	1.14	1	1.04	0.999
NCI-H2170	1.03	0.959	0.888	0.819	1.16	0.912	0.956	1.07	1
NCI-H1703	1.29	0.892	1.08	0.249	1.3	1	1.06	1.06	0.953
NCI-H1651	0.947	0.985	0.979	0.951	1.1	1.07	1.06	1.08	1.01
LU99A	1.03	0.977	0.894	0.924	0.965	0.952	0.956	0.946	1.07
LK-2	0.994	1.16	1.08	1.05	1.28		0.978	1.09	1.14
NCI-H1666	0.975	1	1.05	0.997	1.05	1.15	0.978	0.97	0.967
H3255	0.888	1.07	1.02	1.08	0.998	1.08	0.987	0.963	0.97
SK-MES-1	0.989	1.01	0.931	0.528	1.15	1.09	1.01	1.09	1.04
NCI-H2023	0.892	0.87	0.752	0.451	1.48	1.05	0.97	1.02	0.851
NCI-H1650	0.867	0.981	0.943	0.472	1.13	0.999	0.845	0.978	0.928
LCLC-97TM1	0.955	1.02	1.11	0.71	0.939		0.971	0.95	0.878
UMC-11	0.973	0.943	1	1.08	1.1	0.821	0.987	1.07	0.996
NCI-H1975	0.971	0.899	0.935	0.759	1.21	1.01	1.14	1.17	1.04
NCI-H2405	0.924	0.993	1.02	1.04	1.07	1.02	0.924	0.982	0.947
NCI-H1734	1.03	0.972	1	0.676	1.16	0.96	0.997	1.02	1.05
NCI-H1993	0.9	0.996	0.925	1.1	1.03	0.863	1.02	0.959	0.987
NCI-H1792	0.749	0.915	0.75	0.895	0.973	0.928	1.16	1.06	0.855

Cell Line	relative viability (Adavosertib; 0.01 µM)	relative viability (Adavosertib; 0.03162 µM)	relative viability (Adavosertib; 0.1 µM)	relative viability (Adavosertib; 0.3162 µM)	relative viability (Nelarabine; 0.01 µM)	relative viability (Nelarabine; 0.03162 µM)	relative viability (Nelarabine; 0.1 µM)	relative viability (Nelarabine; 0.3162 µM)	relative viability (Nelarabine; 1 µM)
NCI-H358	0.838	0.785	0.752	0.467	1.1	0.928	0.804	1.06	1.05
Calu-6	1.03	1.03	1.05	0.6	1.19	1.13	1.04	1.1	1.1
PC-14	1.01	1.01	1.01	0.605	1.19	0.99	1.21	1.07	1.03
NCI-H520	0.948	0.876	1	0.879	1.2	1.02	1.1	0.941	1.01
NCI-H23	0.925	0.98	0.659	0.313	1.22	0.911	1.01	0.987	0.96
NCI-H322M	0.85	0.953	0.845	0.61	0.963	0.896	0.884	0.937	0.923
IA-LM	0.927	0.953	1	1.03	1.1	1.12	1.06	1.07	0.971
LC-2-ad	0.979	1.02	1.01	1.13	1.14	1.05	0.984	1.05	0.989
LOU-NH91	0.956	0.992	0.974	0.918	0.948	0.944	0.935	1.02	0.956
CAL-12T	0.948	1.07	1.1	0.856	1.15	1.02	0.969	0.99	1.05
A549	0.933	0.984	1	1.01	1.19	1.04	1.02	1	0.911
NCI-H1648	0.907	0.847	0.838	0.71	0.713	0.929	0.776	1.11	0.881
NCI-H2009	1.02	1.01	1.07	1.02	1.23	1.07	1	1.02	1.03
SK-LU-1	1.1	1.04	0.886	0.488	1.35	0.885	1.1	1.2	1.18
NCI-H1793	0.787	0.835	0.885	1.09	1.09	0.775	1.1	1.09	1
NCI-H3122	0.987	0.95	1.04	1.03	1.1	0.929		1.06	1.05
NCI-H1437	1.02	0.912	1.03	0.981	1.21	0.989	0.994	1.04	0.918
NCI-H650	0.896	0.972	1.03	0.859	0.942	0.996	0.962	1	1.04
HCC-78	0.85	0.973	1.03	1.04	1.01	0.942		1.05	0.932
ABC-1	0.885	0.893	0.948	0.96	1.1	0.911	0.988	1.11	0.943
A-427	1.02	1.02	1.05	0.894	1.06	1.08	1.04	1.05	0.938
HCC-15	0.979	1.05	1.07	1.23	1.16	0.978	1.06	1.07	1.06
EKVX	0.975	0.967	0.955	1.1	1.09	0.898	0.857	1.09	0.968
SW 900	0.738	1.07	0.885	0.49	0.998	0.897	1.06	1	0.896
BEN	0.886	1.04	1.06	1.09	1.05	1.05	1.02	1.19	1.03

Cell Line	relative viability (Adavosertib; 0.01 µM)	relative viability (Adavosertib; 0.03162 µM)	relative viability (Adavosertib; 0.1 µM)	relative viability (Adavosertib; 0.3162 µM)	relative viability (Nelarabine; 0.01 µM)	relative viability (Nelarabine; 0.03162 µM)	relative viability (Nelarabine; 0.1 µM)	relative viability (Nelarabine; 0.3162 µM)	relative viability (Nelarabine; 1 µM)
201T	0.973	1.02	0.981	1.04	1.03	0.907	1.04	1.02	0.999
SW 1573	0.99	1.03	1.14	0.965	1.13	1.04	0.995	1.05	0.979
HCC-827	1.04	1.06	1.08	1.03	1.03	0.93	0.97	0.828	0.823
NCI-H2228	0.994	0.996	0.946	0.616	1.17	0.991		1.35	0.948
NCI-H2085	0.991	1.01	1	1.03	1	1.04	0.963	0.995	0.958
NCI-H727	0.961	0.898	1.03	0.936	1.22	0.891	0.856	0.97	0.896
NCI-H596	1.05	1.1	0.956	0.931	1.05	1.01	1	0.992	1.06
NCI-H1623	0.895	0.915	0.949	1.01	0.869	1.12	0.965	0.979	0.931
EBC-1	0.974	1.02	1.07	0.971	1.19	1.14	1.05	1.01	0.975
NCI-H2342	1.01	1.02	0.986	0.96	1.07	0.833	1.01	0.969	0.99
PC-3 [JPC-3]	1.04	1.04	1.04	1.05	1.08	1.09	1.14	1.06	1.06
NCI-H1563	0.954	0.894	0.917	1.01	1.04	1.03	0.951	0.985	0.986
COR-L23	1.14	1.02	1.03	0.585	1.49	1.21	0.96	1.06	1.07
ChaGo-K-1	0.947	0.995	1.05	0.918	1.05	0.912	0.962	0.964	0.962
RERF-LC-KJ	1.01	0.971	1.02	0.994	1.18	1.09	1.06	1.07	1.02
HCC-366	1.04	1.05	0.998	1.01	1.28	0.865	0.982	1.08	1.02
NCI-H460	1.03	1.01	1.02	1.08	1.24	1.09	1.01	1.2	1
NCI-H1915	0.999	1.01	1.06	0.996	1.15	1.03	1.02	1	1.05
COR-L 105	0.865	0.885	0.807	0.747	1.01	1.12	0.971	0.842	1.04
NCI-H441	1.16	1.01	1.19	1.02	1.31	1.11	0.987	1.14	1.09
LCLC-103H	1.03	0.981	0.954	0.985	1.15	1.01	1.03	1.03	1.07
HARA	0.929	1.04	1.01	0.897	1.2	1.14	0.97	1.06	1.01
NCI-H1755	1.02	0.998	0.958	0.86	1.01	0.948	0.988	1.1	1.1
LXF-289	1.02	0.988	1.01	1.04	1.11	1.04	1.01	1.05	0.995
NCI-H1299	1.03	0.999	1.04	0.789	1.07	1.07	1.04	1.07	1.03
